# Molecular target: T1, human CXCR3 (N-delta 4) (Homo sapiens, UniProt P49682)
# T1 construct: CD8 leader (N); Flag tag; expressed in transfected cells; membrane preparation
# T1 sequence (P49682 5-368 limits assumed): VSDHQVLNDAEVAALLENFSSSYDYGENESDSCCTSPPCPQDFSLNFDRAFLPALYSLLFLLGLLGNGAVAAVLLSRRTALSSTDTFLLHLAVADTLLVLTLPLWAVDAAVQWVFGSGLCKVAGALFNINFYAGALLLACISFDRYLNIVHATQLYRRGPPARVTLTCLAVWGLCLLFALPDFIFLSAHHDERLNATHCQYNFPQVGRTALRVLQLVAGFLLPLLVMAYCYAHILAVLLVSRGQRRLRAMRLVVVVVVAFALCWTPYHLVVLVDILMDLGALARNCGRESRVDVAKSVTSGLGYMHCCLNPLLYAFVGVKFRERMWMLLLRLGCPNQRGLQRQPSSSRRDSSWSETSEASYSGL
# Assay: Human CXCR3 (N-delta 4) scintillation proximity assay (SPA), [125I] IP-10 binding to Ba/F3-hCXCR3 membranes
# Details: IC50 rating; [125I] IP-10 displacement, human CXCR3; read-out: IC50
# Procedure, shortened: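 Membranes from Ba/F3 cells expressing Flag-tagged hCXCR3 (N-delta 4), 2 μg/point, precoupled to WGA SPA beads. Binding of 25 pM [125I] IP-10 measured with titrated compounds, 3 hr at room temperature, in HEPES buffer with CaCl2, MgCl2, NaCl and 1.0% BSA; bound tracer read by scintillation counting.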
row,Structure (SMILES),IC50
1,C[C@@H]1CN(c2ncc(Nc3c(NCC(F)(F)F)c(=O)c3=O)cc2Cl)[C@@H](C)CN1C1CCN(C2CCCC(C(F)(F)F)C2)CC1 (stereo partly drawn) [Compound 172],> 100 nM
2,CC[C@H]1CN(c2ncc(NS(C)(=O)=O)cc2Cl)CCN1C1CCN(Cc2ccc(Cl)cc2[N+](=O)[O-])CC1 [Compound 28],25 to 100 nM
3,CC[C@H]1CN(c2ncc(NS(C)(=O)=O)cc2Cl)CCN1C1CCN(C(=O)c2ccc(Cl)cc2O)CC1 [Compound 62],> 100 nM
4,CC[C@H]1CN(c2ncc([N+](=O)[O-])cc2Cl)CCN1C1CCN(Cc2ccc(Cl)cc2F)CC1 [Compound 212],25 to 100 nM
5,CC[C@H]1CN(c2ncc(NS(N)(=O)=O)cc2Cl)CCN1C1CCN([C@H](C(N)=O)c2ccc(Cl)cc2)CC1 [Compound 35],25 to 100 nM
6,C[C@H]1CN(c2ncc(NS(C)(=O)=O)cc2Cl)CCN1C1CCN(Cc2ccc(C#N)cc2)CC1 [Compound 53],> 100 nM
7,CC[C@H]1CN(c2ncc(Nc3ncccn3)cc2Cl)CCN1C1CCN(Cc2ccc(Cl)cc2F)CC1 [Compound 211],25 to 100 nM
8,CCC(C)(C)C1CCC(N2CCC(N3C[C@H](C)N(c4ncc(Nc5c(NCC(F)(F)F)c(=O)c5=O)cc4Cl)C[C@H]3C)CC2)C1 (stereo partly drawn) [Compound 144],> 100 nM
9,C[C@H]1CN(c2ncc(NS(C)(=O)=O)cc2Cl)CCN1C1CCN(Cc2ccc(Cl)cc2)CC1 [Compound 32],25 to 100 nM
10,C[C@H]1CN(c2ncc(NC(=O)C3CCCCC3)cc2Cl)CCN1C1CCN(Cc2ccc(Cl)cc2)CC1 [Compound 194],> 100 nM
11,CC(=O)Nc1cnc(N2CCN(C3CCN(Cc4ccc(Cl)cc4)CC3)[C@@H](C)C2)c(Cl)c1 [Compound 181],< 25 nM
12,C[C@H]1CN(c2ncc(NC(=O)c3ccc(Cl)cc3)cc2Cl)CCN1C1CCN(Cc2ccc(Cl)cc2)CC1 [Compound 200],> 100 nM
13,CC[C@H]1CN(c2ncc(NS(C)(=O)=O)cc2Cl)CCN1C1CCN(Cc2ccc(Cl)cc2F)CC1 [Compound 7],< 25 nM
14,CC[C@H]1CN(c2ncc(NC3=NS(=O)(=O)N=C3NCCO)cc2Cl)CCN1C1CCN(Cc2ccc(Cl)cc2F)CC1 [Compound 238],< 25 nM
15,C[C@@H]1CN(c2ncc(Nc3c(NCC(F)(F)F)c(=O)c3=O)cc2Cl)[C@@H](C)CN1C1CCN(CCCC2CCCCC2)CC1 [Compound 118],> 100 nM
16,CC[C@H]1CN(c2ncc(NS(=O)(=O)NC(=O)OC(C)(C)C)cc2Cl)CCN1C1CCN(Cc2ccc(Cl)cc2F)CC1 [Compound 55],> 100 nM
17,CC[C@H]1CN(c2ncc(NC3=NS(=O)(=O)N=C3NC(C)(C)C)cc2Cl)CCN1C1CCN(Cc2ccc(Cl)cc2C#N)CC1 [Compound 267],> 100 nM
18,CC[C@H]1CN(c2ncc(N/C(=N/C#N)NCCO)cc2Cl)CCN1C1CCN(Cc2ccc(Cl)cc2F)CC1 [Compound 214],> 100 nM

row,Structure (SMILES),IC50
1,C[C@H]1CN(c2ncc(-n3cccn3)cc2Cl)CCN1C1CCN(Cc2ccc(Cl)cc2F)CC1 [Compound 225],> 100 nM
2,CC[C@H]1CN(c2ncc(NS(C)(=O)=O)cc2Cl)CCN1C1CCN(Cc2cc3ccccc3o2)CC1 [Compound 48],> 100 nM
3,CCCCNC1=NS(=O)(=O)N=C1Nc1cnc(N2CCN(C3CCN(Cc4ccc(Cl)cc4C(=N)NO)CC3)[C@@H](CC)C2)c(Cl)c1 [Compound 241],< 25 nM
4,CC1CCCC(N2CCC(N3C[C@H](C)N(c4ncc(Nc5c(NCC(F)(F)F)c(=O)c5=O)cc4Cl)C[C@H]3C)CC2)C1 (stereo partly drawn) [Compound 163],> 100 nM
5,CC[C@H]1CN(c2ncc(NS(C)(=O)=O)cc2Cl)CCN1C1CCN(Cc2ccc(Br)cc2F)CC1 [Compound 8],< 25 nM
6,CC[C@H]1CN(c2ncc(NS(C)(=O)=O)cc2Cl)CCN1C1CCN([C@@H](C(N)=O)c2ccc(Cl)cc2)CC1 [Compound 59],> 100 nM
7,CC[C@H]1CN(c2ncc(NS(N)(=O)=O)cc2Cl)CCN1C1CCN([C@H](C(=O)OC)c2ccc(Cl)cc2)CC1 [Compound 16],< 25 nM
8,C[C@H]1CN(c2nc(Cl)c(N)cc2Cl)CCN1C1CCN(Cc2ccc(Cl)cc2F)CC1 [Compound 228],> 100 nM
9,CC[C@H]1CN(c2ncc(N)cc2Cl)CCN1C1CCN(Cc2ccc(Br)cc2F)CC1 [Compound 203],< 25 nM
10,Cc1cc(OCc2ccccc2)cc(C)c1C(=O)N1CCC(N2C[C@H](C)N(c3ncc(Nc4c(NCC(F)(F)F)c(=O)c4=O)cc3Cl)C[C@H]2C)CC1 [Compound 140],> 100 nM
11,Cc1cc(Nc2c(NCC(F)(F)F)c(=O)c2=O)cnc1N1C[C@@H](C)N(C2CCN(C(=O)C3CCc4ccccc4C3)CC2)C[C@@H]1C (stereo partly drawn) [Compound 130],> 100 nM
12,CC[C@H]1CN(c2ncc(N(S(C)(=O)=O)S(C)(=O)=O)cc2Cl)CCN1C1CCN(Cc2ccc(Cl)cc2F)CC1 [Compound 61],> 100 nM
13,CC[C@H]1CN(c2ncc(NC3=NS(=O)(=O)N=C3NCCNS(C)(=O)=O)cc2Cl)CCN1C1CCN(Cc2ccc(Cl)cc2F)CC1 [Compound 274],> 100 nM
14,COc1ccc(CN2CCC(N3CCN(c4ncc(NS(C)(=O)=O)cc4Cl)C[C@@H]3C)CC2)c(F)c1 [Compound 56],> 100 nM
15,CC[C@H]1CN(c2ncc(NS(=O)(=O)N(C)C)cc2Cl)CCN1C1CCN(Cc2ccc(Cl)cc2F)CC1 [Compound 17],< 25 nM
16,CC[C@H]1CN(c2ncc(NS(C)(=O)=O)cc2Cl)CCN1C1CCN(Cc2ccc(Cl)cc2OC)CC1 [Compound 1],< 25 nM
17,CC[C@H]1CN(c2ncc(NS(C)(=O)=O)cc2Cl)CCN1C1CCN(Cc2cc(Br)cs2)CC1 [Compound 44],> 100 nM

# Second part, the compound after the results:
row,IC50,Structure (SMILES)
1,> 100 nM,C[C@@H]1CN(c2ncc(Nc3c(NCC(F)(F)F)c(=O)c3=O)cc2Cl)[C@@H](C)CN1C1CCN(Cc2ccc3c(c2)OCO3)CC1 [Compound 120]
2,25 to 100 nM,CC[C@H]1CN(c2ncc(N(C)c3c(NC4CC4)c(=O)c3=O)cc2Cl)CCN1C1CCN([C@H](C(N)=O)c2ccc(Cl)cc2)CC1 [Compound 112]
3,< 25 nM,C[C@H]1CN(c2ncc(NC(=O)C3CC3)cc2Cl)CCN1C1CCN(Cc2ccc(Cl)cc2)CC1 [Compound 184]
4,< 25 nM,CC[C@H]1CN(c2ncc(NS(C)(=O)=O)cc2Cl)CCN1C1CCN(Cc2ccc(C)cc2)CC1 [Compound 19]
5,< 25 nM,CC[C@H]1CN(c2ncc(Nc3c(NC4CCC4)c(=O)c3=O)cc2Cl)CCN1C1CCN(Cc2ccc(OC(F)(F)F)cc2)CC1 [Compound 83]
6,> 100 nM,C[C@@H]1CN(c2ncc(Nc3c(NCC(F)(F)F)c(=O)c3=O)cc2Cl)[C@@H](C)CN1C1CCN(Cc2nccs2)CC1 [Compound 152]
7,> 100 nM,CC(=O)Nc1ccc(CN2CCC(N3C[C@H](C)N(c4ncc(Nc5c(NCC(F)(F)F)c(=O)c5=O)cc4Cl)C[C@H]3C)CC2)cc1 [Compound 147]
8,25 to 100 nM,CC[C@H]1CN(c2ncc(Nc3c(NCC(=O)OC(C)(C)C)c(=O)c3=O)cc2Cl)CCN1C1CCN([C@H](CO)c2ccc(Cl)cc2)CC1 [Compound 110]
9,25 to 100 nM,C[C@H]1CN(c2ncc(NS(C)(=O)=O)cc2Cl)CCN1C1CCN(Cc2ccc(OC(F)(F)F)cc2)CC1 [Compound 38]
10,< 25 nM,CC[C@H]1CN(c2ncc(Nc3c(NC4CC4)c(=O)c3=O)cc2Cl)CCN1C1CCN(Cc2ccc(Cl)cc2C(N)=O)CC1 [Compound 81]
11,< 25 nM,CC[C@H]1CN(c2ncc(Nc3c(NCC(F)(F)F)c(=O)c3=O)cc2Cl)CCN1C1CCN(C(CO)c2ccc(Cl)cc2)CC1 (stereo partly drawn) [Compound 85]
12,< 25 nM,CC[C@H]1CN(c2ncc(NC3=NS(=O)(=O)N=C3NC3CC3)cc2Cl)CCN1C1CCN(Cc2ccc(C#N)cc2)CC1 [Compound 248]
13,< 25 nM,CC[C@H]1CN(c2ncc(Nc3c(C(C)C)c(=O)c3=O)cc2Cl)CCN1C1CCN(Cc2ccc(Cl)cc2F)CC1 [Compound 84]
14,< 25 nM,CC[C@H]1CN(c2ncc(NC3=NS(=O)(=O)N=C3NC3CC3)cc2Cl)CCN1C1CCN(Cc2ccc(OC(F)(F)F)cc2)CC1 [Compound 234]
15,25 to 100 nM,CC[C@H]1CN(c2ncc(Nc3c(NC4CCC4)c(=O)c3=O)cc2Cl)CCN1C1CCN(C(=O)c2ccc(Cl)cc2)CC1 [Compound 107]
16,< 25 nM,CC[C@H]1CN(c2ncc(NC3=NS(=O)(=O)N=C3NC3CC3)cc2Cl)CCN1C1CCN(Cc2ccc(Cl)cc2F)CC1 [Compound 235]
17,> 100 nM,C[C@@H]1CN(c2ncc(Nc3c(NCC(F)(F)F)c(=O)c3=O)cc2Cl)[C@@H](C)CN1C1CCN(Cc2ccccc2OCC(=O)O)CC1 [Compound 137]
18,25 to 100 nM,CC[C@H]1CN(c2ncc(N(C)c3c(NC4CC4)c(=O)c3=O)cc2Cl)CCN1C1CCN(C(CO)c2ccc(Cl)cc2)CC1 (stereo partly drawn) [Compound 108]
19,< 25 nM,CC[C@H]1CN(c2ncc(Nc3c(NC4CC4)c(=O)c3=O)cc2Cl)CCN1C1CCN(Cc2ccc(Br)cc2F)CC1 [Compound 79]
20,< 25 nM,CC[C@H]1CN(c2ncc(NC3=NS(=O)(=O)N=C3NC3CC3)cc2Cl)CCN1C1CCN([C@H](CO)c2ccc(Cl)cc2)CC1 [Compound 240]
21,< 25 nM,CC[C@H]1CN(c2ncc(NC3=NS(=O)(=O)N=C3NCC3CC3)cc2Cl)CCN1C1CCN(Cc2ccc(Cl)cc2F)CC1 [Compound 246]
22,> 100 nM,C[C@@H]1CN(c2ncc(Nc3c(NCC(F)(F)F)c(=O)c3=O)cc2Cl)[C@@H](C)CN1C1CCN(Cc2cccc(C#N)c2)CC1 [Compound 143]
23,> 100 nM,CC[C@H]1CN(c2ncc(NC3=NS(=O)(=O)N=C3N3CCOCC3)cc2Cl)CCN1C1CCN(Cc2ccc(F)c(F)c2)CC1 [Compound 269]
24,> 100 nM,COC(=O)c1ccc(CN2CCC(N3C[C@H](C)N(c4ncc(Nc5c(NCC(F)(F)F)c(=O)c5=O)cc4Cl)C[C@H]3C)CC2)cc1 [Compound 123]

# Same assay, conditions: value given in the text as example; read-out: IC50 value
row,IC50,Structure (SMILES)
1,0.8 nM,CC[C@H]1CN(c2ncc(NS(C)(=O)=O)cc2Cl)CCN1C1CCN(Cc2ccc(Cl)cc2OC)CC1 [Compound 1]

# From patent US7566718B2, “Amine-linked pyridyl and phenyl substituted piperazine-piperidines with CXCR3 antagonist activity” (Schering Corporation, priority 2005, dated 2009)
